Reference: patent US20260364186A1, “Chemical Conjugates, Compositions, and Methods of Preparation and Use Thereof” (Transfection Holdings Limited, priority 2022, published 2026)

Experiments:
Assay type in all cases: cell-based, human
[1] = tested on: HT29 (colorectal cancer cell line); assay: FACS uptake of BODIPY FL conjugates (Example 4); conditions: 200 nM, 5 min
Protocol: FIG. 4A: Conjugate compounds coupled to BODIPY FL were tested for uptake using 200 nM each conjugate and 5 minute incubation with colorectal cancer cell line HT29. Mean fluorescent intensities (MFI). 1,000 cells were sorted by FACS.
Materials and methods: The HT-29 line was originally isolated from a primary tumour in 1964 from a person. This cell line is positive for expression of N-ras and overexpression of p53 antigen. The human colon adenocarcinoma cell line HT29, is not only used to study the biology of human colon cancers, but it is receiving special interest in studies focused on food digestion and bioavailability due to the ability to express characteristics of mature intestinal cells. The application of this cell line to transport studies of drugs and food compounds is illustrated, especially when the effect of the mucus layer is considered or used as co-culture in combination with Caco-2 cells. These cells have shown a high rate of glucose consumption and therefore, they require high glucose concentration in the medium. Verhoeck et al., 2015.
For these experiments, HT-29 or MEF cells were diluted on αMEM media (supplemented with 10% FBS+1% penicillin-streptomycin) to give a 250 cells/μL suspension of which 200 μL were aliquoted into each well of a 96 well plate followed by incubation for 24 hours. Next, 2 μL of 100 μM stock solutions in DMSO from the conjugates coupled to BODIPY were diluted with 998 μL of αMEM media to give a 200 nM solution. After 24 hour incubation, media was removed and 200 μL of 138 and pantothenic acid/pantothenic acid derivatives coupled to BODIPY 200 nM solutions were added and cells were incubated for 5 minutes at 37 °C. After 5 minutes, the compounds and DMSO solutions were removed and cells were washed with PBS. Then, 100 μL of TrypLE trypsin were added to each well and incubated for 5 minutes at 37 °C. After this time, 100 μL of DMEM media were added to the wells and samples were sorted through FACS biosort. The studies were completed in duplicated wells.

neutrophils = assay: FACS uptake of BODIPY FL conjugates in PBMCs (Example 3); conditions: 135 nM
Protocol: (§1) FIG. 3A. Conjugate compounds coupled to BODIPY FL were tested for uptake using 135 nM each conjugate and 4.5 minute incubation with human lymphocytes, monocytes and neutrophils (from a healthy donor). Mean fluorescent intensities (MFI). 1,000 cells (lymphocytes), 500 cells (monocytes) and 250 cells (neutrophils) sorted by FACS. Bars represent mean±SD. Results represent a single experiment done in duplicate.
(§2) In addition to this, 25 mL of full blood was collected from a healthy donor in lithium-heparin vacutainer. Peripheral blood mononuclear cells (PBMCs) were collected after ficoll separation. PBMCs then were centrifuge at 400 g for 5 minutes. Supernatant was removed from the cells and resuspended with 20 mL of HBSS with a final concentration of 417,500 cells/mL. Then, 479 μL of cells suspension were poured into Eppendorf tube and 1000 μL of 200 nM drug solution in HBSS were added to afford 135 nM final drug concentration, incubated at 37 °C for 5 minutes. After incubation time, PBMCs were centrifuged at 400 g for 5 minutes. Supernatant was removed from the cells and pellet resuspended with 200 μL of HBSS. Suspension was transferred to 96 well-plate and run on FACS machine, approximately 1,000-250 cells analysed. The FACS results output represented the mean of the fluorescence intensities (in arbitrary units) measured for cells sorted in every sample.

monocytes = assay: as above; conditions: 135 nM
Protocol: as §1, §2

Jurkat cells = assay: FACS uptake of BODIPY FL conjugates in Jurkat cells (Example 3); conditions: 200 nM
Protocol: FIG. 3B: Conjugate compounds coupled to BODIPY FL were tested for uptake using 200 nM each conjugate and 5 minute incubation with immortalized T lymphocyte cell line, Jurkat cells. Mean fluorescent intensities (MFI). 1,000 cells sorted by FACS. Bars represent mean±SD. Results represent a single experiment done in duplicate.
Materials and methods: Jurkat cells have been previously shown to be defective in the expression of two lipid phosphatases, PTEN (phosphatase and tensin homologue) and SHIP (SH2-domain-containing inositol polyphosphate 5′ phosphatase). The biological implications of SHIP deficiency in T cells remain under evaluation, but the loss of PTEN leads to activation of the phosphatidylinositol 3-kinase (PI3K)-signalling pathway. See Abraham and Weiss, 2004. This activation of PI3K protein is also on NZM40 melanoma cell line, and represents a key mutation for its sustained proliferation. See Silva et al., 2017. For these experiments, Jurkat cells were diluted on RPMI media (supplemented with 10% FBS+1% penicillin-streptomycin) to afford 400 cells/μL. 2 μL of 100 μM stock solutions in DMSO from 138 and pantothenic acid/pantothenic acid derivatives coupled to BODIPY were diluted with 998 μL of RPMI media (supplemented with 10% FBS+1% penicillin-streptomycin) to afford 200 nM solution. 100,000 cells were dispensed to Eppendorf tubes, centrifuged for 1.5 min at 5000 rcf and the supernatant was removed. The cells then were incubated with 500 μL of solutions at 200 nM for 4.5 min and 37 °C. After the incubation time, cells were centrifuged for 1.5 minutes at 5000 rcf. Supernatant was removed and cell pellet re-suspended in 200 μL fresh RPMI media, transferred to 96 well-plate and run on FACS machine, approximately 1,000 cells analysed.

[2] = tested on: NZM40 (NRAS Q16H) melanoma cells; assay: FACS uptake of BODIPY FL conjugates, 200 nM, 5 min (Example 2)
Protocol: FIG. 2. Conjugate compounds coupled to BODIPY FL were tested for uptake using 200 nM each conjugate and 5 minute incubation with melanoma cell line NZM11 (BRAF V600E mutant metastatic melanoma), melanoma cell line NZM40 (NRAS Q16H mutant metastatic melanoma) and melanoma cell line NZM9 (BRAF and NRAS wildtype metastatic melanoma). Mean fluorescent intensities (MFI). 2,000 cells (NZM11), 1,000 cells (NZM40) and 500-1,000 cells (NZM9). Cells were sorted by FACS. Bars represent mean±SD. Results were from a single experiment done in triplicate.
NZM40 is an adherent cell line which was originally derived from a metastatic melanoma from a patient, in 2004. This human metastatic melanoma is identified with code CBA-1381 from Cell bank Australia. […] Ras is a superfamily of proteins implicated in cell growth, survival and differentiation. NRAS (neuroblastoma rat sarcoma) was the first oncogene recognized in melanoma and mutations in NRAS account for 20% of all melanomas. NRAS mutations primarily occur at position 61 and involve amino acid change from glutamine (Q) to arginine (R), lysine (K), leucine (L) or histidine (H). These mutations block NRAS into a GTP-bound state damaging its GTPase activity (FIG. 1). Patients are usually older (>55 years) with previous UV exposure. See Garcia-Alverez et al., 2021.
For screening, NZM11, NZM40 and NZM9 cells were suspended at […] dispensed into 96 well plates and left to settle for 48 hours. Then, 10 μL of 10 mM stock solutions in DMSO for the conjugates were diluted with HBSS to afford 400 nM solution. Next, 400 nM compounds and DMSO solutions were diluted 1:1 with MEMα media to afford 200 nM solutions. After 48 hours the media was removed from the 96 well plates and 200 μL of 200 nM conjugates solutions dispensed to each well (in triplicate) and incubated for 5 minutes at 37 °C. After 5 minutes, the media was removed and cells washed with PBS. Then, 100 μL of TrypLE trypsin (ThermoFisher Scientific) were added to each well and incubated for 5 minutes at 37 °C after which, 100 μL of MEMα media were added and samples were sorted through FACS biosort. The FACS results output were represented as the mean of the fluorescence intensities (in arbitrary units) measured for cells sorted in every sample.

SMILES | uptake (fluorescent intensities) [1] | targeting / fluorescence intensities (neutrophils) | targeting / fluorescence intensities (monocytes) | uptake / targeting (Jurkat cells) | uptake (fluorescence intensities) [2]
CC1=CC(C)=[N+]2C1=Cc1ccc(CCCn3cc(CCNC(=O)/C=C/NC(=O)[C@H]4OC(C)(C)OCC4(C)C)nn3)n1[B-]2(F)F [Compound 127, (E)-N-((((3-[4,4-Difluoro-5,7-dimethyl-4-bora-3a,4a-diaza-s-indacene-3-yl]propyl)-1H-1,2,3-triazol-4-yl)ethylamino)-3-oxoprop-1-enyl)-2,2,5,5-tetramethyl-1,3-dioxane-4-carboxamide] | moderately higher fluorescent intensities | showed targeting | showed targeting | showed targeting | showed selectivity
CC1=CC(C)=[N+]2C1=Cc1ccc(CCCn3cc(CCNC(=O)/C=C\NC(=O)[C@H](O)C(C)(C)CO)nn3)n1[B-]2(F)F [Compound 128, (Z)—N-((((3-[4,4-Difluoro-5,7-dimethyl-4-bora-3a,4a-diaza-s-indacene-3-yl]propyl)-1H-1,2,3-triazol-4-yl)ethylamino)-3-oxoprop-1-enyl)-2,4-dihydroxy-3,3-dimethylbutanamide] |  | significant intensities | significant intensities | showed targeting | showed selectivity
